{"source": "patent US20110171675A1", "about": "“FRET-BASED MEMBRANE-TYPE 1 MATRIX METALLOPROTEINASE BIOSENSOR AND METHODS FOR USING THE SAME” (priority 2008, published 2011)", "key": {"[1]": {"tested_on": "Src", "assay": "PDGF-induced Src activation in MEFs (Src FRET biosensor)", "format": "cell-based, mouse", "text": "Unexpectedly, PDGF-induced Src activation was global without a clear spatial pattern at subcellular levels, even when MEFs were constrained on fibronectin stripes to have directional migration."}, "[2]": {"tested_on": "Rac", "assay": "PDGF-induced Rac activity in MEFs (Rac FRET biosensor)", "format": "cell-based, mouse", "text": "The improved ECFP/YPet biosensor was further used in the analysis of molecular hierarchy in cell migration. […] However, the spatiotemporal interrelationship between Src and Rac activation has not been shown. Thus, the improved Rac biosensor was employed to visualize the spatiotemporal Rac activity during cell migration in response to platelet-derived growth factor (PDGF). The role of Src in regulating this Rac activation was also investigated. […] PDGF induced a strong Rac activation at membrane ruffles and a moderate overall activation of Rac in the whole cell. […] To further characterize the spatiotemporal Rac activity, MEF cells transfected with the Rac biosensor were seeded atop fibronectin-coated stripes (10 μm width) to constrain the cell adhesion and control the direction of cell migration. […] Again, the inhibition of Src by PP1 or Src/Yes/Fyn triple-knockout blocked the polarized Rac activity before and after PDGF stimulation."}, "[3]": {"tested_on": "Src", "assay": "VEGF-induced membrane Src activation in live endothelial cells (FRET)", "format": "cell-based", "conditions": "YPet-based membrane-targeted Src biosensor", "text": "Both VEGF and Src are critical for angiogenesis. […] However, VEGF-induced Src activation was difficult to detect using an ECFP/Citrine-based biosensor. […] Thus, the YPet-based Src biosensor was targeted to the plasma membrane by fusing a prenylation substrate sequence (Lys-Lys-Lys-Lys-Lys-Lys-Ser-Lys-Thr-Lys-Cys-Val-Ile-Met; SEQ ID NO:9) from KRas to visualize the VEGF-induced membrane Src activation in live endothelial cells."}}, "data": [{"compound": "C=C1[C@@H](C)[C@H]2[C@H](Cc3ccccc3)NC(=O)[C@]23[C@H](OC(C)=O)/C=C/[C@@](C)(O)C(=O)[C@@H](C)C/C=C/[C@H]3[C@@H]1O", "note": "[CytoD]", "values": [{"measurement": "PDGF-induced Src activation", "setting": "[1]; MEF cells transfected with RacV12", "result": "inhibited"}, {"measurement": "PDGF-induced Src activation", "setting": "[1]; MEFs, disruption of actin filaments", "result": "blocked"}]}, {"compound": "Cc1ccc(-c2nn(C(C)(C)C)c3ncnc(N)c23)cc1", "note": "[PP1]", "values": [{"measurement": "Polarized Rac activity before and after PDGF stimulation", "setting": "[2]; MEFs on fibronectin-coated stripes (10 μm width)", "result": "blocked"}, {"measurement": "Basal and PDGF-induced Rac activity", "setting": "[2]; MEFs pretreated with inhibitor, cultured on fibronectin", "result": "significantly inhibited"}, {"measurement": "Effect of inhibitor on VEGF-induced FRET response", "setting": "[3]", "result": "abolished"}]}, {"compound": "CC(C)c1cc(/C=C(\\C#N)C(=O)NCCCc2ccccc2)cc(C(C)C)c1O", "note": "[SU1498]", "values": [{"measurement": "Effect of inhibitor on VEGF-induced FRET response", "setting": "[3]", "result": "abolished"}]}]}
